According to the supplement of paper PMC10307832:

Experiments:
Assay in all cases: relative viability (nuclei count vs DMSO), 5 days (fraction); higher = more cells survive
[1] = compound: CCN(CCO)CCCC(C)Nc1ccnc2cc(Cl)ccc12 [Hydroxychloroquine] + Cc1cc(Nc2cc(N3CCN(C)CC3)nc(Sc3ccc(NC(=O)C4CC4)cc3)n2)n[nH]1 [Tozasertib] (partner 0.1 µM)
How it was run: (§1)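 Lung cancer cell lines, seeded in 1536-well plates, were treated the following day by pin tool with a single drug or with five library-drug doses (not always all listed) in √10 steps on top of a fixed anchor-drug dose. Cells were fixed and nuclei stained in one step after 5 days, and nuclei were counted. Relative viability is the nuclei count for treated wells divided by that for vehicle wells, reported as medians of duplicate plates.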

[2] = compound: CCN(CCO)CCCC(C)Nc1ccnc2cc(Cl)ccc12 [Hydroxychloroquine] + Cc1nc(Nc2ncc(C(=O)Nc3c(C)cccc3Cl)s2)cc(N2CCN(CCO)CC2)n1 [Dasatinib] (partner 0.075 µM)
How it was run: as §1

[3] = compound: CCN(CCO)CCCC(C)Nc1ccnc2cc(Cl)ccc12 [Hydroxychloroquine] + COc1cc2c(Oc3ccc(NC(=O)C4(C(=O)Nc5ccc(F)cc5)CC4)cc3F)ccnc2cc1OCCCN1CCOCC1 [Foretinib] (partner 0.25 µM)
How it was run: as §1

[4] = compound: CCN(CCO)CCCC(C)Nc1ccnc2cc(Cl)ccc12 [Hydroxychloroquine] + N=C(N)NC(=N)NCCc1ccccc1 [Phenformin] (partner 250 µM)
How it was run: as §1

[5] = compound: CCN(CCO)CCCC(C)Nc1ccnc2cc(Cl)ccc12 [Hydroxychloroquine] + COc1cccc2cc(-c3nc([C@H]4CC[C@H](C(=O)O)CC4)n4ncnc(N)c34)[nH]c12 [OSI-027] (partner 0.5 µM)
How it was run: as §1

[6] = compound: CCN(CCO)CCCC(C)Nc1ccnc2cc(Cl)ccc12 [Hydroxychloroquine] + CCNC(=O)c1noc(-c2cc(C(C)C)c(O)cc2O)c1-c1ccc(CN2CCOCC2)cc1 [Luminespib] (partner 0.01 µM)
How it was run: as §1

Hydroxychloroquine = compound: CCN(CCO)CCCC(C)Nc1ccnc2cc(Cl)ccc12 [Hydroxychloroquine]
How it was run: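 Viability was defined as treated-well nuclei divided by vehicle-well nuclei, with the median taken over replicate plates. Cells from lung cancer lines sat overnight at 37 °C in 1536-well plates, received five √10-spaced library-drug doses by pinning on vehicle-anchored plates, and grew 5 days without medium change before one-step fixation, permeabilisation and Hoechst staining, 4× imaging and MetaXpress nuclear counts. Only plates with control CV under 25% and at least one doubling were kept.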

## NCI-H1623
[1]; first compound 0.5 µM
  relative viability: 0.392
[1]; first compound 1.581 µM
  relative viability: 0.405
[1]; first compound 5 µM
  relative viability: 0.406
[1]; first compound 15.81 µM
  relative viability: 0.526
[1]; first compound 50 µM
  relative viability: 0.488
[2]; first compound 0.5 µM
  relative viability: 0.554
[2]; first compound 1.581 µM
  relative viability: 0.485
[2]; first compound 5 µM
  relative viability: 0.51
[2]; first compound 15.81 µM
  relative viability: 0.547
[2]; first compound 50 µM
  relative viability: 0.52
[3]; first compound 0.5 µM
  relative viability: 0.823
[3]; first compound 1.581 µM
  relative viability: 0.842
[3]; first compound 5 µM
  relative viability: 0.88
[3]; first compound 15.81 µM
  relative viability: 0.937
[3]; first compound 50 µM
  relative viability: 0.82
[4]; first compound 0.5 µM
  relative viability: 0.544
[4]; first compound 1.581 µM
  relative viability: 0.565
[4]; first compound 5 µM
  relative viability: 0.578
[4]; first compound 15.81 µM
  relative viability: 0.606
[4]; first compound 50 µM
  relative viability: 0.588
[5]; first compound 0.5 µM
  relative viability: 0.411
[5]; first compound 1.581 µM
  relative viability: 0.406
[5]; first compound 5 µM
  relative viability: 0.449
[5]; first compound 15.81 µM
  relative viability: 0.418
[5]; first compound 50 µM
  relative viability: 0.439
[6]; first compound 0.5 µM
  relative viability: 0.431
[6]; first compound 1.581 µM
  relative viability: 0.409
[6]; first compound 5 µM
  relative viability: 0.496
[6]; first compound 15.81 µM
  relative viability: 0.74
[6]; first compound 50 µM
  relative viability: 0.537
Hydroxychloroquine; 0.5 µM
  relative viability: 0.88
Hydroxychloroquine; 1.581 µM
  relative viability: 0.959
Hydroxychloroquine; 5 µM
  relative viability: 0.941
Hydroxychloroquine; 15.81 µM
  relative viability: 0.943
Hydroxychloroquine; 50 µM
  relative viability: 0.992
